Laboratory results from ChEMBL document CHEMBL5357068, “Discovery of Novel TLR7 Agonists as Systemic Agent for Combination With aPD1 for Use in Immuno-oncology” (ACS Med Chem Lett, 2024).
Activity calls are given as the source filed them. No cut-off for these calls is given here.

What was measured:
Blood [1] = assay: Induction of IFIT3 secretion in mouse whole blood; format: functional, tissue-based
[2] = Metabolic stability in cynomolgus monkey liver microsomes assessed as half-life; format: ADME, Macaca fascicularis, Microsome
Mus musculus [3] = assay: Induction of IFN-alpha production in Balb/c mouse serum at […], iv measured after 6 hrs by ELISA analysis; format: functional, organism-based
[4] = Protein binding in cynomolgus monkey plasma assessed as free fraction; format: ADME, cell-free, Macaca fascicularis
CT26 = assay: Cytotoxicity against mouse CT26 cells; format: toxicity, cell-based
Blood [5] = assay: Induction of IFIT1 secretion in mouse whole blood; format: functional, tissue-based
Blood [6] = assay: Induction of IP-10 secretion in mouse whole blood; format: functional, tissue-based
[7] = Metabolic stability in mouse liver microsomes assessed as half-life; format: ADME, Microsome
[8] = target: T1, Toll-like receptor 8 (Homo sapiens) (UniProt Q9NR97); assay: Agonist activity at human TLR8
T1 sequence (whole entry): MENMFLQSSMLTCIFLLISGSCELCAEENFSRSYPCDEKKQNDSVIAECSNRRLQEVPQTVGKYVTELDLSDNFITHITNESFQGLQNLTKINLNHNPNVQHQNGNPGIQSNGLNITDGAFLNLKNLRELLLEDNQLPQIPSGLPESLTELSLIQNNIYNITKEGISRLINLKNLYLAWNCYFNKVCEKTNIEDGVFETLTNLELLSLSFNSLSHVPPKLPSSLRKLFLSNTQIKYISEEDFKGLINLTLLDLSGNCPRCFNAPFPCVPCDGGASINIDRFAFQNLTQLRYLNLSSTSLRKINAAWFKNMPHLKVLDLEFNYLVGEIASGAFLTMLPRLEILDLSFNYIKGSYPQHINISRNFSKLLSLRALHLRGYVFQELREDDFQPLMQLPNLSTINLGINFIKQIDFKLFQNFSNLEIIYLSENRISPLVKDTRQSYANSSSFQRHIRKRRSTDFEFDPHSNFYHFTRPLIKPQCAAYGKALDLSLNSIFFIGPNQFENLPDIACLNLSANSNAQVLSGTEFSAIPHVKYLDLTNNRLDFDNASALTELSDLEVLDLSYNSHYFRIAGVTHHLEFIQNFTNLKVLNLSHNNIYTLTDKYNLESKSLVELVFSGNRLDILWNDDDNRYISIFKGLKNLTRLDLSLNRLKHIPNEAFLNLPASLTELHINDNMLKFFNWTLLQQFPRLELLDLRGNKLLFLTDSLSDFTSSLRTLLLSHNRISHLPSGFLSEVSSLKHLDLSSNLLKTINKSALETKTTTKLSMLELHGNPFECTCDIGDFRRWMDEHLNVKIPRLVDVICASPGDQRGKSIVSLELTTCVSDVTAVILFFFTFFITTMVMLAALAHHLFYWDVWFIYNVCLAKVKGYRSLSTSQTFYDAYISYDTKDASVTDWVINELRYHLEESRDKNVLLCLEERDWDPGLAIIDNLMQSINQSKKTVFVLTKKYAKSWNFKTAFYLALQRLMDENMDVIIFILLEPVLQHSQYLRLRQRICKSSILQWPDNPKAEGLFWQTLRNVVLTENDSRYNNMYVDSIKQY

in vitro = settings: PHA-activated T cells
[9] = Protein binding in human plasma assessed as free fraction; format: ADME, cell-free
[10] = Permeability of compound at pH 7.4 by PAMPA; format: ADME; settings: read-out: permeability
[11] = Drug concentration in Balb/c mouse at 0.5 mg/kg, iv measured after 5 min by LC-MS analysis; format: ADME, organism-based; settings: in vivo, read-out: Drug uptake
Blood [12] = assay: Induction of TNF-alpha secretion in human whole blood; format: functional, tissue-based
[13] = Metabolic stability in human liver microsomes assessed as half-life; format: ADME, Microsome
Blood [14] = assay: Induction of IP-10 secretion in human whole blood; format: functional, tissue-based
[15] = target: Toll-like receptor 2 (Homo sapiens) (UniProt O60603); assay: Agonist activity at human TLR2
[16] = target: Voltage-gated inwardly rectifying potassium channel KCNH2 (Homo sapiens, UniProt Q12809); assay: Inhibition of hERG by patch clamp assay; format: toxicity
[17] = target: Toll-like receptor 3 (Homo sapiens) (UniProt O15455); assay: Agonist activity at human TLR3
[18] = target: Toll-like receptor 4 (Homo sapiens) (UniProt O00206); assay: Agonist activity at human TLR4
[19] = Protein binding in mouse plasma assessed as free fraction; format: ADME, cell-free
Blood [20] = assay: Induction of TNF-alpha secretion in mouse whole blood; format: functional, tissue-based
[21] = target: T2, Nuclear receptor subfamily 1 group I member 2 (Homo sapiens, UniProt O75469); assay: Transactivation of PXR (unknown origin)
T2 sequence (O75469 whole entry): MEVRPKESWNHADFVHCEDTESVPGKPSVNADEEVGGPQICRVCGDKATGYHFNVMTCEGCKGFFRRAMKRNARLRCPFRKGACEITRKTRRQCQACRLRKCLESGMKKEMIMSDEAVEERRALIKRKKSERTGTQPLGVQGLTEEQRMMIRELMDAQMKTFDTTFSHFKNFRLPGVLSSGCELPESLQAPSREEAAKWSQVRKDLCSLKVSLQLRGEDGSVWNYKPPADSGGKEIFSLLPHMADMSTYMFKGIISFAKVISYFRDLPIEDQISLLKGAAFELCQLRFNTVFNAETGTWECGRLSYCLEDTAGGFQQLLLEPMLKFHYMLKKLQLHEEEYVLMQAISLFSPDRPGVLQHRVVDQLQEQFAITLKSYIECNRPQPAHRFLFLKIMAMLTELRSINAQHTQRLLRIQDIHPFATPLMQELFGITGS

Blood [22] = assay: Induction of IFIT3 secretion in human whole blood; format: functional, tissue-based
[23] = Metabolic stability in mouse liver microsomes assessed as compound remaining; format: ADME, Microsome
THP-1 = assay: Cytotoxicity against human THP-1 cells; format: toxicity, cell-based
[24] = Permeability of compound at pH 5.5 by PAMPA; format: ADME; settings: read-out: permeability
Jurkat = assay: Cytotoxicity against human Jurkat cells; format: toxicity, cell-based
Blood [25] = assay: Induction of MX1 secretion in mouse whole blood; format: functional, tissue-based
[26] = Inhibition of GPCR (unknown origin); design: species or system Homo sapiens
[27] = AUClast in Balb/c mouse at […], iv measured after 2 hrs by LC-MS analysis; format: ADME, organism-based; design: time 2 hrs, dose 0.15 mg/kg, route iv; settings: in vivo
Mus musculus [28] = assay: Induction of IFN-alpha production in iv dosed Balb/c mouse serum measured after 6 hrs by ELISA analysis; format: functional, organism-based; settings: dose lower […], dose upper 0.5 mg/kg
Blood [29] = assay: Induction of IFIT1 secretion in human whole blood; format: functional, tissue-based

Toll-like receptor 2 (Homo sapiens), sequence (O60603 whole entry): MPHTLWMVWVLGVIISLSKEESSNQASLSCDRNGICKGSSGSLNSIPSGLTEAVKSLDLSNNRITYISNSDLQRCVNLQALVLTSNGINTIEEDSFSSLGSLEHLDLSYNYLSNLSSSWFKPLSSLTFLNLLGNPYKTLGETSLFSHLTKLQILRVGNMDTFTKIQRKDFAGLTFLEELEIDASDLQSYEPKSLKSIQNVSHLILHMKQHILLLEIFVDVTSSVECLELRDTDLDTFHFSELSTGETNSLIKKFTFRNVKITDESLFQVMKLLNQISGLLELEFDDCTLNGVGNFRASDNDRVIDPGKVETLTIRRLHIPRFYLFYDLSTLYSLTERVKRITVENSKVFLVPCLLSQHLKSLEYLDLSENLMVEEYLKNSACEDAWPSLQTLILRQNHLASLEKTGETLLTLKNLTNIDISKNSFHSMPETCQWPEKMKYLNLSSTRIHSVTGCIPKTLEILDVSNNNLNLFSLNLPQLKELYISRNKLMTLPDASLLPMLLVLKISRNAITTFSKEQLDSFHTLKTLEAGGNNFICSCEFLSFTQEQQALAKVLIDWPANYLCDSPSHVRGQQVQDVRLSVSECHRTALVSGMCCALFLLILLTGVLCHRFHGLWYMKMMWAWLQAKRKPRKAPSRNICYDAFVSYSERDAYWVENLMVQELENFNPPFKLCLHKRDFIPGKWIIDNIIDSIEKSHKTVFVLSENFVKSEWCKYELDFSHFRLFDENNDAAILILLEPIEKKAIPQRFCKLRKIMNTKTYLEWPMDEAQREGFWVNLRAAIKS
Toll-like receptor 4 (Homo sapiens), sequence (O00206 whole entry): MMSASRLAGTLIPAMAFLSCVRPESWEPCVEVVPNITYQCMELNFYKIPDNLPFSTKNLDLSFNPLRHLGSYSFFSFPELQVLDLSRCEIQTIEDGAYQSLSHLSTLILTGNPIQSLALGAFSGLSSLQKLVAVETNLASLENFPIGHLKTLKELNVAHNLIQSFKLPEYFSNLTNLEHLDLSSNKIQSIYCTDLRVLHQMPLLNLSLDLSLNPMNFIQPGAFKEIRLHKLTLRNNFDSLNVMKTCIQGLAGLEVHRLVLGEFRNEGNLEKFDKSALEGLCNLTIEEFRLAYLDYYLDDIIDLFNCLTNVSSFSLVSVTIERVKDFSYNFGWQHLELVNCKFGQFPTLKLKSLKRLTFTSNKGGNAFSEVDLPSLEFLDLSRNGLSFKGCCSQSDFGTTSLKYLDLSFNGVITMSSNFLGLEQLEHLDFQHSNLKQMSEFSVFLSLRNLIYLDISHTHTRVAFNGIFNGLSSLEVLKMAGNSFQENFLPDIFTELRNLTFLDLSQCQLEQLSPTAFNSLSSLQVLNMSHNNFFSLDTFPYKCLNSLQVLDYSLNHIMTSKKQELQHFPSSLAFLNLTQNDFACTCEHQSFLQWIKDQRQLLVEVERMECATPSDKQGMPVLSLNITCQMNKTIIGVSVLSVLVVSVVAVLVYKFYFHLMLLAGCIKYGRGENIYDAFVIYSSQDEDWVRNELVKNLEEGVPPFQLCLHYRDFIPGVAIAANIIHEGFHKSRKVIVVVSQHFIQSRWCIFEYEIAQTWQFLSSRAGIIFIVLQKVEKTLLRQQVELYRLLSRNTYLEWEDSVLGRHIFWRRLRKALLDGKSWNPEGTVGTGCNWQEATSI
Voltage-gated inwardly rectifying potassium channel KCNH2, sequence (Q12809 whole entry): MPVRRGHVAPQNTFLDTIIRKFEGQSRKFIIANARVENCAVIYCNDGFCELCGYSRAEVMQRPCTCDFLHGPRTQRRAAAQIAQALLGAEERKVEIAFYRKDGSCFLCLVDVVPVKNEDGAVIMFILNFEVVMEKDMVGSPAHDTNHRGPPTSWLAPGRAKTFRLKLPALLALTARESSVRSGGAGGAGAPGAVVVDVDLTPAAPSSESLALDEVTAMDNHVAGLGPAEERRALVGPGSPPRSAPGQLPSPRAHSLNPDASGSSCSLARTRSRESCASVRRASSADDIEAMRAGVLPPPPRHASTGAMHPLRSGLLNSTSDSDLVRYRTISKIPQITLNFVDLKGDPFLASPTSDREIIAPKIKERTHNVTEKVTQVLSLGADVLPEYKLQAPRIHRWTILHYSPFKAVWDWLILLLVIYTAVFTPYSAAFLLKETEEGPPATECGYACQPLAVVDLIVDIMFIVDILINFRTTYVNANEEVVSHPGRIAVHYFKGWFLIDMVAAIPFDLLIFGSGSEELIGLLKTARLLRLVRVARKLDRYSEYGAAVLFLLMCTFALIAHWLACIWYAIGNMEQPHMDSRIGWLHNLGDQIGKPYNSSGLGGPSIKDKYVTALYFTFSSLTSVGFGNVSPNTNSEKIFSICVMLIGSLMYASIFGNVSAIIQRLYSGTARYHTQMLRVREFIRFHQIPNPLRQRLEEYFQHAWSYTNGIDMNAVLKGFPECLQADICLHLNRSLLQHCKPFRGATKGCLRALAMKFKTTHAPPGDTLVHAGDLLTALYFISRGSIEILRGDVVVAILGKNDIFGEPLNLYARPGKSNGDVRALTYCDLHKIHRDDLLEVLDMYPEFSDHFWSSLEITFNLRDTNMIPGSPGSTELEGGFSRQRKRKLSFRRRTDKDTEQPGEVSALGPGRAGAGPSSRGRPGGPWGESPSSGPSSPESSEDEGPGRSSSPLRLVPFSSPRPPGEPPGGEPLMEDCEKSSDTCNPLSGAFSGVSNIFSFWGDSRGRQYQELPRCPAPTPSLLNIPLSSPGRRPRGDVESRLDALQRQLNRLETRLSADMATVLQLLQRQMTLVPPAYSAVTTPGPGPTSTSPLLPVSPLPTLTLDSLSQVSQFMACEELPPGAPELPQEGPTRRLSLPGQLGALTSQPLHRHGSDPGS
Toll-like receptor 3 (Homo sapiens), sequence (O15455 whole entry): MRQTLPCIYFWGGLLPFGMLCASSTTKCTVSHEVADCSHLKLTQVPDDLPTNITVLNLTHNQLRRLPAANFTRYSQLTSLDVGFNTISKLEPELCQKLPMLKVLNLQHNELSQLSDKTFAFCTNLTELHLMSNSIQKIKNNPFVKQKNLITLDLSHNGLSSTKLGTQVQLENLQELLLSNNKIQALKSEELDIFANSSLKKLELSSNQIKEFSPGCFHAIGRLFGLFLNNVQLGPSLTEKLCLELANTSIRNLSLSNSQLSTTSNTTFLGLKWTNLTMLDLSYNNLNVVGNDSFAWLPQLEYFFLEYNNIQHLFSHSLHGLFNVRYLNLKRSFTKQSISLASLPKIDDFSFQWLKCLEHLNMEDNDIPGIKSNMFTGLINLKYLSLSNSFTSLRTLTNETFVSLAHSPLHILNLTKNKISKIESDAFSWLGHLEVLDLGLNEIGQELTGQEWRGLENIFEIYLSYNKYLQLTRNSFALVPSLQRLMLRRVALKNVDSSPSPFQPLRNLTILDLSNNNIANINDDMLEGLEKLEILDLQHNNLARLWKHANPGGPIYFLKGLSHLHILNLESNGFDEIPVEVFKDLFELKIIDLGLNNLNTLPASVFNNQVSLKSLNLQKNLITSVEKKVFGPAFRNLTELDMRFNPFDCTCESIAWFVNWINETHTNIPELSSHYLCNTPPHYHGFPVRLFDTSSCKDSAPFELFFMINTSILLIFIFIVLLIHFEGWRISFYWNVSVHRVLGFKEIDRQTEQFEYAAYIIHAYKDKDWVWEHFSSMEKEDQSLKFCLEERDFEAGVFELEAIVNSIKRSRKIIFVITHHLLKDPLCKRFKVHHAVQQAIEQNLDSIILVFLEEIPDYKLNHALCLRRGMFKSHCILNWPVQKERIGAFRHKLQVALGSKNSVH

- EC50 (Blood [1]): 0.13 nM
- half-life [2]: 16 min
- fraction unbound [4]: 0.31
- EC50 (Blood [5]): 0.19 nM
- EC50 (Blood [6]): 0.32 nM
- half-life [7]: 85 min
- EC [8]: > 5 µM
- IC50 (in vitro): > 25000 nM
- fraction unbound [9]: 0.5
- Papp [10]: 1.58 ×10⁻⁶ cm/s
- concentration at 5 min [11]: 139 nM
- EC50 (Blood [12]): 631 nM
- half-life [13]: 43 min
- EC50 (Blood [14]): 0.13 nM
- EC [15]: > 5 µM
- EC [17]: > 5 µM
- EC [18]: > 5 µM
- fraction unbound [19]: 0.41
- EC50 (Blood [20]): 3.4 nM
- EC [21]: > 50 nM
- EC50 (Blood [22]): 0.11 nM
- Stability [23]: 81%
- Papp [24]: 0.95 ×10⁻⁶ cm/s
- EC50 (Blood [25]): 0.18 nM
- IC50 [26]: > 30000 nM
- AUC(0-t) at 2 h [27]: 0.075 µM·h
- EC50 (Blood [29]): 0.1 nM
Compound: CCC[C@@H](CCO)Nc1nc(N)nc2cnn(Cc3ccc(CNC4CCOCC4)cc3OC)c12
- Activity (Mus musculus [3]): inactive
- EC (CT26): > 25 µM
- IC50 [16]: ≥ 45000 nM
- EC (THP-1): > 25 µM
- EC (Jurkat): > 25 µM
- Activity (Mus musculus [28]): Dose-Dependent Effect
